Test results from patent US5696112A, “Fused heterocyclic azepines as vasopressin antagonists” (American Cyanamid Company, priority 1995, dated 1997).
Like-named read-outs stand apart in the source and are kept apart here.

Experiments:
[1] = target: T1, Rat Hepatic V1 Receptors (vasopressin V1) (Rattus norvegicus, UniProt P30560); experiment: Binding Assay to Rat Hepatic V1 Receptors; conditions: rat hepatic V1, [3H]vasopressin
T1 construct: Rat liver plasma membranes expressing the vasopressin V1 receptor subtypes are isolated by sucrose density gradient; from tissue; host or cells: rat liver plasma membranes
Protocol: Binding Assay to Rat Hepatic V1 Receptors
Rat liver plasma membranes expressing the vasopressin V1 receptor subtypes are isolated by sucrose density gradient according to the method described by Lesko et al., (1973). These membranes are quickly suspended in 50.0 mMTris.HCl buffer, pH 7.4, containing 0.2% bovine serum albumin (BSA) and 0.1 mM phenylmethylsulfonylfluoride (PMSF) and kept frozen at -70° C. until used in subsequent binding experiments. For binding experiments, the following is added to the wells of a ninety-six well format microtiter plate: 100 μl of 100.0 mM Tris.HCl buffer containing 10.0 mM MgCl2, 0.2% heat inactivated BSA and a mixture of protease inhibitors: leupeptin, 1.0 mg %; aprotinin, 1.0 mg %, 1,10-phenanthroline,2.0 mg %; trypsin inhibitor, 10.0 mg % and 0.1 mM PMSF, 20.0 μl of [phenylalanyl-3,4,5-^3 H]vasopressin (S.A. 45.1 Ci/mmole) at 0.8 nM, and the reaction initiated by the addition of 80 μl of tissue membranes containing 20 μg of tissue protein. The plates are kept undisturbed on the bench top at room temperature for 120 min. to reach equilibrium. Nonspecific samples are assayed in the presence of 0.1 μM of the unlabeled antagonist phenylalanylvasopressin, added in 20.0 μl volume to a final incubation volume of 200 μl. Upon completion of binding, the content of each well is filtered off, using a Brandel® cell Harvester (Gaithersburg, Md.). The radioactivity trapped on the filter disk by the ligand-receptor complex is assessed by liquid scintillation counting in a Packard LS Counter, with an efficiency of 65% for tritium. The data are analyzed for IC50 values by the LUNDON-2 program for competition (LUNDON SOFTWARE, OH).

oxytocin receptors = target: T2, oxytocin receptors (Rattus norvegicus, UniProt P70536); experiment: Oxytocin Receptor Binding; parameters: species or system Sprague-Dawley rats; conditions: for IC50: 1.0 nM [3H]oxytocin
T2 construct: The uteri are dissected out, cleaned of fat and connective tissues; from tissue; host or cells: uterus membranes of DES-treated female Sprague-Dawley rats
T2 sequence (P70536 1-388): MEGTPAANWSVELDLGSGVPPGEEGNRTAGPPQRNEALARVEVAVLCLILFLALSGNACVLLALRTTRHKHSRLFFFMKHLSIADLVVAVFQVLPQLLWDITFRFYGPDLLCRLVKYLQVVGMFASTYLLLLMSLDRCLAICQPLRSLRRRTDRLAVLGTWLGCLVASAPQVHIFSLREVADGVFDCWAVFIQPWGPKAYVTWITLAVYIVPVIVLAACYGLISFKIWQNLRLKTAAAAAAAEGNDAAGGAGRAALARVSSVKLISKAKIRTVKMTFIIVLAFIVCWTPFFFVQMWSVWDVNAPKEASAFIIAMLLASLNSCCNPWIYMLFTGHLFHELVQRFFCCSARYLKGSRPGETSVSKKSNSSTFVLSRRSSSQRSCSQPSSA
How it was run: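 Membranes from uteri of DES-primed (0.3 mg/kg i.m., 18 h) female Sprague-Dawley rats incubated 60 min at 22 °C with 1.0 nM [3H]oxytocin in 50 mM Tris.HCl pH 7.4, 5 mM MgCl2 plus protease inhibitors; nonspecific binding with 1.0 uM oxytocin. IC50 from displacement after filtration.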

Vasopressin V1 = Vasopressin V1 Antagonist Activity in Conscious Rats (vasopressin vasopressor response); type: in vivo, rat; conditions: for inhibition in vivo at 30 mg/kg / inhibition in vivo at 10 mg/kg / inhibition in vivo at 20 mg/kg: Rattus norvegicus, read-out: Vasopressin vasopressor response, Max. % Inhibition
Protocol: Vasopressin V1 Antagonist Activity in Conscious Rats Conscious rats are restrained in a supine position with elastic tape. The area at the base of the tail is locally anesthetization by subcutaneous infiltration with 2% procaine (0.2 ml). Using aseptic technique the ventral caudal tail artery is isolated and a cannula made of PE 10 and 20 (heat-fused) tubing is passed into the lower abdominal aorta. The cannula is secured, heparinized (1000 i.u./cc), sealed and the would closed with one or two stitches of Dexon 4-0. The caudal vein is also cannulated in the same manner for intravenous drug administration. The duration of the surgery is approximately 5 minutes. Additional local anesthesia (2% procaine or lidocaine) is provided as needed. The animals are placed in plastic restraining cages in an upright position. The cannula is attached to a […] pressure transducer and pulsatile blood pressure is recorded. […] Percentage of antagonism by the compound is calculated using the pre-drug vasopressin vasopressor response as 100%.

T1 sequence (P30560 whole entry): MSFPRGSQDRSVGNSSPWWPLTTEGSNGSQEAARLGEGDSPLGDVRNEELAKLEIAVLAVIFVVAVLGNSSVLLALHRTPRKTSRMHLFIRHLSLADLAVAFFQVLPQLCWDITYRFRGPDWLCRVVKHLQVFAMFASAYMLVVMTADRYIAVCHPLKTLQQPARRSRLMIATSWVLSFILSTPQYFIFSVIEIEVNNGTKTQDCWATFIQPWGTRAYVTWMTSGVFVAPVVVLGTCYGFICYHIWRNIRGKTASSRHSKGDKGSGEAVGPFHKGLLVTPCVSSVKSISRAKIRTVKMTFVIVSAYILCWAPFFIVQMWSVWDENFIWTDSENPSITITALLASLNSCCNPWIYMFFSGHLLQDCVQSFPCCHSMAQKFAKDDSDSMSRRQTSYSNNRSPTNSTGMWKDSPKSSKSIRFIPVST

| Structure (SMILES) | IC50 [1] [µM] | IC50 (oxytocin receptors) [µM] | inhibition at 10 µM (oxytocin receptors) [%] | Time (Min) of Max. % Inhibition (Vasopressin V1; 30 mg/kg po) [min] | inhibition in vivo at 30 mg/kg (Vasopressin V1; 30 mg/kg po) [%] | Time (Min) of Max. % Inhibition (Vasopressin V1; 10 mg/kg iv) [min] | inhibition in vivo at 10 mg/kg (Vasopressin V1; 10 mg/kg iv) [%] | Time (Min) of Max. % Inhibition (Vasopressin V1; 20 mg/kg iv) [min] | inhibition in vivo at 20 mg/kg (Vasopressin V1; 20 mg/kg iv) [%] | inhibition at 1.25 µM (oxytocin receptors; 1.25 μM) [%] | Time (Min) of Max. % Inhibition (Vasopressin V1; 30 mg/kg iv) [min] | inhibition in vivo at 30 mg/kg (Vasopressin V1; 30 mg/kg iv) [%] |
| --- | --- | --- | --- | --- | --- | --- | --- | --- | --- | --- | --- | --- |
| O=C(Nc1ccc(C(=O)N2CCCCc3sccc32)cc1)c1cc(Cl)ccc1Cl [Example 9, N-[4-[(5,6,7,8-Tetrahydro-4H-thieno[3,2-b]azepin-4-yl)carbonyl]phenyl]2,5-dichlorobenzamide] | 0.21 | 5.2 | 60 | 180 | 17 |  |  |  |  |  |  |  |
| Cc1ccccc1CC(=O)Nc1ccc(C(=O)N2CCCCc3sccc32)cc1 [Example 13, N-[4-[(5,6,7,8-Tetrahydro-4H-thieno[3,2-b]azepin-4-yl)carbonyl]phenyl]2-methylbenzeneacetamide] | 0.014 | 0.68 | 95 |  |  | 60 | 80 |  |  |  |  |  |
| O=C(Nc1ccc(C(=O)N2CCCCc3sccc32)c(Cl)c1)c1ccc(Cl)cc1Cl [Example 68, N-[4-[(5,6,7,8-Tetrahydro-4H-thieno[3,2-b]azepin-4-yl)carbonyl]-3-chlorophenyl]-2,4-dichlorobenzamide] |  |  | 55 |  |  |  |  | 120 | 50 |  |  |  |
| Cc1ccc(F)cc1C(=O)Nc1ccc(C(=O)N2CCCCc3sccc32)c(Cl)c1 [Example 70, N-[4-[(5,6,7,8-Tetrahydro-4H-thieno[3,2-b]azepin-4-yl)carbonyl]-3-chlorophenyl]-5-fluoro-2-methylbenzamide] |  | 0.51 | 97 |  |  |  |  | 120 | 67 |  |  |  |
| O=C(Nc1ccc(C(=O)N2CCCCc3sc(Cl)cc32)cc1)c1ccc(Cl)cc1Cl [Example 93, 2,4-Dichloro-N-[4-[(2-chloro-5,6,7,8-tetrahydro-4H-thieno[3,2-b]azepin-4-yl)carbonyl]phenyl]benzamide] | 0.23 | 1.8 | 83 |  |  |  |  | 90 | 77 |  |  |  |
| Cc1c(F)cccc1C(=O)Nc1ccc(C(=O)N2CCCCc3sc(Cl)cc32)cc1 [Example 94, N-[4-[(2-Chloro-5,6,7,8-tetrahydro-4H-thieno[3,2-b]azepin-4-yl)carbonyl]phenyl]-3-fluoro-2-methylbenzamide] | 0.16 | 0.95 | 97 |  |  |  |  | 90 | 74 |  |  |  |
| O=C(Nc1ccc(C(=O)N2CCCCc3sc(Cl)cc32)cc1)c1c(Cl)cccc1Cl [Example 95, N-[4-[(2-Chloro-5,6,7,8-tetrahydro-4H-thieno[3,2-b]azepin-4-yl)carbonyl]phenyl]-2,6-dichlorobenzamide] |  | 1.38 | 85 |  |  | 30 | 61 |  |  |  |  |  |
| Cc1ccccc1C(=O)Nc1ccc(C(=O)N2CCCCc3sc(Cl)cc32)cc1 [Example 96, N-[4-[(2-Chloro-5,6,7,8-tetrahydro-4H-thieno[3,2-b]azepin-4-yl)carbonyl]phenyl]-2-methylbenzamide] | 0.088 | 0.27 |  |  |  | 90 | 65 |  |  | 58 |  |  |
| Cc1c(F)cccc1C(=O)Nc1ccc(C(=O)N2CCCC(=O)c3sccc32)cc1 [Example 155, N-[4-[(5,6,7,8-Tetrahydro-8-oxo-4H-thieno[3,2-b]azepine-4-yl)carbonyl]phenyl]-3-fluoro-2-methylbenzamide] | 7.6 |  | 16 |  |  |  |  | 60 | 62 |  |  |  |
| O=C(Nc1ccc(C(=O)N2CCCC(=O)c3sccc32)cc1)c1ccc(Cl)cc1Cl [Example 156, N-[4-[(5,6,7,8-Tetrahydro-8-oxo-4H-thieno[3,2-b]azepin-4-yl)carbonyl]-phenyl]-2,4-dichlorobenzamide] | 5.5 |  | 0 |  |  |  |  | 240 | 63 |  |  |  |
| Cc1ccccc1C(=O)Nc1ccc(C(=O)N2CCCC(=O)c3sccc32)cc1 [Example 157, N-[4-[(5,6,7,8-Tetrahydro-8-oxo-4H-thieno[3,2-b]azepin-4-yl)carbonyl]-phenyl]-2-methylbenzamide] | 3.6 |  | 29 |  |  |  |  | 60 | 66 |  |  |  |
| O=C(Nc1ccc(C(=O)N2CCCCc3sccc32)c(Cl)c1)c1ccc(F)cc1Cl [Example 183] |  | 0.6 | 86 |  |  |  |  |  |  |  | 120 | 78 |
